Patent publication US11022556B2, “Tetrazolium compound for detecting microorganisms, reagent for detecting microorganisms and method for detecting microorganisms” (JNC CORPORATION, priority 2010, dated 2021)

Key:
general viable cells = test: comparative test for detecting microorganisms on sheet media for detecting general viable cells; type: cell-based; conditions: food samples (meat, precut vegetables, delicatessens); sheet medium with 0.03 g/m^3 reagent; 35° C.; 24 hours incubation vs 48 hours for 2,3,5-triphenyltetrazolium chloride
Method: Next, the results obtained by a comparative test for detecting microorganisms using the chromogenic reagent of Example 1 and the chromogenic reagent of Comparative Example are described below. The comparative test was performed as follows. First, sheet media for detecting general viable cells containing as the chromogenic reagent 0.03 g/m^3 each of tetrazolium compound A of Example 1 and 2,3,5-triphenyltetrazolium chloride of Comparative Example, respectively, were prepared. The sheet media for general viable cells were the same except that the chromogenic reagents were different.
Then, 10 g of either one of meat, precut vegetables, delicatessens, etc. was put into a sterilized bag and 100 ml of sterile saline was added thereto. The mixture was homogenized with a stomacher. […]
The sheet medium of Example 1 for detecting general viable cells containing the chromogenic reagent was incubated for 24 hours and the sheet medium for detecting general viable cells containing the chromogenic reagent for comparison was incubated for 48 hours, respectively, both at 35° C. The viable cell counts were compared between the count of viable cells visually detected by the chromogenic reagent of Example 1 and the count of viable cells detected by the chromogenic reagent of Comparative Example. […]

[1] = absorption wavelength and colour of the formazan dye formed from the tetrazolium compound; type: physicochemical; conditions: formazan dye produced by reduction of the tetrazolium compound

Row | SMILES | number of colonies (viable cell count) visually detected, compared with the chromogenic reagent of Comparative Example (general viable cells) | colour developed by the formazan dye [1] | peak of absorption wavelength of the formazan dye formed [1]
1 | COc1ccccc1-n1nc(-c2ccccc2)n[n+]1-c1ccc([N+](=O)[O-])cc1.[Cl-] [tetrazolium compound A, 2-(2-Methoxyphenyl)-3-(4-nitrophenyl)-5-phenyltetrazolium chloride] | almost the same number or more of colonies were detected | blue to bluish purple | approximately 410 nm
2 | COc1cc([N+](=O)[O-])ccc1-n1nc(-c2ccccc2)n[n+]1-c1ccc([N+](=O)[O-])cc1.[Cl-] [tetrazolium compound B, 2-(2-Methoxy-4-nitrophenyl)-3-(4-nitrophenyl)-5-phenyltetrazolium chloride] | the colonies were detected in the same number as in or more than | blue to bluish purple | approximately 410 nm
